What was measured:
SARS-CoV-2 [1] = conditions: biorxiv.org/content/10.1101/2020.06.21.162396v1; cited from earlier work
[2] = test system: Ace2-A549 cells (human lung epithelial cells); test: host cell survival in SARS-CoV-2 infected Ace2-A549 cells; conditions: concentration of 10 micromolar
SARS-CoV-2 [3] = format: cell-based; conditions: Ace2-A549 cells, concentration of 10 micromolar, FIG. 2

Compound | in vitro activity against this virus (SARS-CoV-2 [1]) | killing of host cells [2] | elimination of SARS-CoV-2 virus infection (SARS-CoV-2 [3])
C=C1/C(=C\C=C2/CCC[C@]3(C)[C@@H]([C@H](C)CCCC(C)(C)O)CC[C@@H]23)C[C@@H](O)C[C@@H]1O [Calcitriol] | in vitro activity against this virus | – | –
C=C1/C(=C\C=C2/CCC[C@]3(C)[C@@H]([C@H](C)CC[C@@H](CC)C(C)C)CC[C@@H]23)C[C@@H](O)C[C@@H]1O [1-alphahydroxyvitamin D5, 1-alpha-hydroxyvitamin D5] | – | without killing the host cells | greater than 99%

Reference: US20220054510A1, “USE OF 1-ALPHA-HYDROXYVITAMIN D5 AND RELATED COMPOUNDS AS PROPHYLACTIC OR THERAPEUTIC AGENTS FOR SARS-COV-2 (COVID-19 VIRUS) AND RELATED INFECTIONS” (priority 2020, published 2022)
